The values that follow come from patent US20230085307A1, “PYRIDAZINONE COMPOUND AND HERBICIDE” (NISSAN CHEMICAL CORPORATION, priority 2019, published 2023).

What all share (details): amount of applied herbicide 320 g/ha
The subject of experiment [1] is Italian ryegrass. Nature of the experiment: Test Example 4: herbicidal effect by soil treatment (Table 19, symbol K). The class given is in vivo, Italian ryegrass (Lolium multiflorum). A digest of the protocol:
(§1)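 Soil-surface application: an emulsion agent diluted with water to the predetermined dose is sprayed uniformly over seeds lying under roughly 1.5 cm of sterilized diluvial soil. Boxes stay in a greenhouse at 25° C. to 30° C. Three weeks later, each species is graded on previously defined criteria.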

For experiment [2], the system named is redroot pigweed. The experiment can be described thus: Test Example 4: herbicidal effect by soil treatment (Table 19, symbol N). The class given is in vivo, redroot pigweed (Amaranthus retroflexus). Put shortly: as §1
Experiment [3] has as its system barnyard grass. Nature of the experiment: Test Example 3: herbicidal effect by foliage application, Wagner pot (Table 18, symbol H). The experiment is classed as in vivo, barnyard grass (Echinochloa crus-galli). A digest of the protocol:
(§2)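 Plants were sown in alluvial soil held under 0.1–0.5 cm standing water and grown 14 days in a greenhouse at 25–30 °C. An emulsifiable formulation, water-diluted to the set dose, was then sprayed onto the foliage, and effects were scored three weeks later using previously defined criteria.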

For experiment [4], the system named is blackgrass. Nature of the experiment: Test Example 4: herbicidal effect by soil treatment (Table 19, symbol J). The experiment is classed as in vivo, blackgrass (Alopecurus myosuroides). Put shortly:
as §1

Experiment [5] concerns lambsquarters. The experiment can be described thus: Test Example 4: herbicidal effect by soil treatment (Table 19, symbol O). The class given is in vivo, lambsquarters (Chenopodium album). A digest of the protocol:
as §1

Experiment [6] concerns southern crabgrass. The experiment can be described thus: Test Example 4: herbicidal effect by soil treatment (Table 19, symbol F). The experiment is classed as in vivo, southern crabgrass (Digitaria ciliaris). Put shortly:
as §1

Experiment [7] relates to velvetleaf. Nature of the experiment: Test Example 4: herbicidal effect by soil treatment (Table 19, symbol M). The experiment is classed as in vivo, velvetleaf (Abutilon theophrasti). A digest of the protocol: as §1
In experiment [8] the test system is Chinese sprangletop. Nature of the experiment: Test Example 3: herbicidal effect by foliage application, Wagner pot (Table 18, symbol D). The experiment is classed as in vivo, chinese sprangletop (Leptochloa chinensis). A digest of the protocol:
as §2

The test system of experiment [9] is green foxtail. The experiment can be described thus: Test Example 4: herbicidal effect by soil treatment (Table 19, symbol G). The experiment is classed as in vivo, green foxtail (Setaria viridis). Put shortly: as §1
In experiment [10] the test system is chickweed. The experiment can be described thus: Test Example 4: herbicidal effect by soil treatment (Table 19, symbol P). The experiment is classed as in vivo, common chickweed (Stellaria media). A digest of the protocol:
as §1

The test system of experiment [11] is wild oat. Nature of the experiment: Test Example 4: herbicidal effect by soil treatment (Table 19, symbol I). The experiment is classed as in vivo, wild oat (Avena fatua). A digest of the protocol:
as §1

The subject of experiment [12] is persian speedwell. Nature of the experiment: Test Example 4: herbicidal effect by soil treatment (Table 19, symbol R). The class given is in vivo, Persian speedwell (Veronica persica). A digest of the protocol:
as §1

For experiment [13], the system named is rice flat sedge. The experiment can be described thus: Test Example 3: herbicidal effect by foliage application, Wagner pot (Table 18, symbol E). The class given is in vivo, rice flat sedge (Cyperus iria). Put shortly: as §2
Experiment [14] deals with windgrass. The experiment can be described thus: Test Example 4: herbicidal effect by soil treatment (Table 19, symbol L). The experiment is classed as in vivo, windgrass (Apera spica-venti). Put shortly: as §1
Experiment [15] concerns barnyard grass. Nature of the experiment: Test Example 4: herbicidal effect by soil treatment (Table 19, symbol H). The class given is in vivo, barnyard grass (Echinochloa crus-galli). Put shortly:
as §1

For the compound `Cc1nn(C)c(=O)c(-c2c(-c3cnccc3Cl)sc3ccc(F)cc23)c1O` [2-385], in experiment [1], the “herbicidal effect, K: Italian ryegrass” value was 4 (Herbicidal rate of 70% or more and less than 90%). Further, in [2], the “herbicidal effect, N: redroot pigweed” value is 3 (Herbicidal rate of 40% or more and less than 70%). Further, the “herbicidal effect on H: barnyard grass” value in [3] was 5 (Herbicidal rate of 90% or more (almost completely withered)). The “herbicidal effect, J: blackgrass” value in experiment [4] is given as 0 (Herbicidal rate of 5% or less (almost no effect)). Further, the “herbicidal effect, O: lambsquarters” value in experiment [5] is 4 (Herbicidal rate of 70% or more and less than 90%). Besides, in experiment [6], the “herbicidal effect, F: southern crabgrass” value is reported as 0 (Herbicidal rate of 5% or less (almost no effect)). Besides, in experiment [7], the “herbicidal effect, M: velvetleaf” value is 2 (Herbicidal rate of 20% or more and less than 40%). For the same compound, the “herbicidal effect on D: Chinese sprangletop” value in experiment [8] was 5 (Herbicidal rate of 90% or more (almost completely withered)). The “herbicidal effect, G: green foxtail” value in experiment [9] is 0 (Herbicidal rate of 5% or less (almost no effect)). In addition, the “herbicidal effect, P: chickweed” value in [10] was 3 (Herbicidal rate of 40% or more and less than 70%). Besides, the “herbicidal effect, I: wild oat” value in experiment [11] was 3 (Herbicidal rate of 40% or more and less than 70%). The “herbicidal effect, R: persian speedwell” value in experiment [12] is 5 (Herbicidal rate of 90% or more (almost completely withered)). Further, the “herbicidal effect on E: rice flat sedge” value in experiment [13] is 5 (Herbicidal rate of 90% or more (almost completely withered)). In addition, the “herbicidal effect, L: windgrass” value in experiment [14] was 1 (Herbicidal rate of 5% or more and less than 20%). Moreover, in experiment [15], the “herbicidal effect, H: barnyard grass” value is 0 (Herbicidal rate of 5% or less (almost no effect)).
